Columns and labels:
Format in all cases: in vivo, rat
blood LH levels [1] = test: Blood LH level time course after intraventricular administration in freely moving Wistar rats; settings: for blood LH level compared with the control group: third ventricle, 0-60 min
Protocol: A guide cannula was implanted in adult male Wistar rats treated in the same manner as described in Example 1. The rats were allowed about one week for recovery from the surgery. Then, they received another surgery so that blood samples can be taken from them moving freely. Briefly, the guide cannula-implanted rat was anesthetized by intraperitoneal administration of […] pentobarbital and fixed on an anatomical pad in face-up position. Then, the left jugular vein was exposed. A polyethylene tube SP35 (inside dia. 0.5 mm, outside dia. 0.9 mm; Natsume Seisakusho) was cut to give an about 30 cm length, filled with 200 U/ml heparin-containing physiological saline, inserted into the jugular vein about 4.5 cm, and fixed. The other end of the tube was passed subcutaneously through dorsal skin and exposed from the neck (dorsal).
After one night from the surgery, 300 μl of blood was collected from each rat using a 1 ml injection syringe for tuberculin and a 25-gauge injection needle (both Terumo Corp.) prior to the administration of rat GALP (a peptide consisting of the amino acid sequence as shown in SEQ ID NO: 33). In order to prevent blood coagulation, 10 μl of 300 KIU/ml aprotinin solution containing 3 mg/ml EDTA was added in advance into the injection syringe. The cap nut and the dummy cannula installed on the rat skull were removed. Instead of them, a stainless microinjection cannula (inside dia. 0.17 mm, outside dia. 0.35 mm; Eicom) connected with a Teflon tube (length 50 cm, inside dia. 0.1 mm, outside dia. 0.35 mm; Eicom) was inserted into the guide cannula. The length of the microinjection cannula was adjusted in advance so that 1 mm of it tip was exposed from the guide cannula. One end of the Teflon tube was connected with a microsyringe pump. […] Five minutes after the completion of the injection, the microinjection cannula was removed, and a dummy cannula was fixed again with a cap nut. […] The LH levels in the plasma were measured by radioimmunoassay (Amersham).

blood LH levels [2] = test: Blood LH levels after intraventricular GALP in Zucker fatty and Zucker lean rats; settings: 1 nmol third ventricle
Protocol: Effects of GALP administration into the third ventricle on LH levels in plasma were examined using Zucker obese rats having an abnormality of Leptin receptor. Briefly, adult male Zucker obese rats (body weights at the time of surgery: fatty: 410-430 g; lean: 290-310 g) were anesthetized by intraperitoneal administration of 50 mg/kg pentobarbital and fixed in a stereotaxic apparatus for rat brain. The incisor bar was set 3.3 mm below the interaural line. The skull surface was exposed, and a hole was drilled in the skull with a dental drill in order to implant a guide cannula AG-8 (inside dia. 0.4 mm, outside dia. 0.5 mm; Eicom) in the third ventricle. Further, four anchor screws were embedded around the hole. A stainless guide cannula (AG-12) was inserted so that its tip was located above the third ventricle. The stereotaxic coordinates were set as follows according to the atlas of Paxinos and Watson (1998): for Zucker fatty, AP: −1.00 mm, L: 0.0 mm, H: 5.6 mm from bregma, and for Zucker lean, AP: −0.9 mm, L: 0.0 mm, H: 5.4 mm from bregma. The guide cannula was fixed onto the skull with instant glue, dental cement and the anchor screws. […]
The rats were allowed about one week for recovery after the implantation of the guide cannula. […] The LH levels in the plasma were measured by radioimmunoassay (Amersham).

[3] = system: pituitary hormone levels in plasma; test: Pituitary hormone levels in plasma after GALP administration into the third ventricle; settings: Wistar rats
Protocol: Effects of GALP administration into the third ventricle on pituitary hormone levels in plasma were examined. Briefly, adult male Wistar rats (body weight: 350-380 g at the time of surgery) were anesthetized by intraperitoneal administration of 50 mg/kg pentobarbital and fixed in a stereotaxic apparatus for rat brain. The incisor bar was set 3.3 mm below the interaural line. The skull surface was exposed, and a hole was drilled in the skull with a dental drill in order to implant a guide cannula AG-8 (inside dia. 0.4 mm, outside dia. 0.5 mm; Eicom) in the third ventricle. Further, four anchor screws were embedded around the hole. A stainless guide cannula (AG-12) was inserted so that its tip was located above the third ventricle. The stereotaxic coordinates were set as follows according to the atlas of Paxinos and Watson (1998): AP: −0.8 mm, L: 0.0 mm, […] from bregma. The guide cannula was fixed onto the skull with instant glue, dental cement and the anchor screws. […]
The rats were allowed about one week for recovery after the implantation of the guide cannula. […] Growth hormone (GH), thyroid-stimulating hormone (TSH), follicle-stimulating hormone (FSH), LH, prolactin and adorenocorticotropic hormone (ACTH) contained in the plasma were quantified by radioimmunoassay (GH, TSH, FSH, LH and prolactin; Amersham) (ACTH; Mitsubishi Kagaku).

**Q.** How did the “blood LH level compared with the control group” value (blood LH levels [1]; 1 nmol administration group) turn out when “rat GALP (APAHRGRGGWTLNSAGYLLGPVLHLSSKANQGRKTDSALEILDLWKAIDGLPYSRSPRMT; Rat)” was run?
**A.** Its value is “tendency to rise”.

**Q.** What about the “time of peak of blood LH rise after the administration” value (blood LH levels [1]; 5 nmol administration group) of the same substance?
**A.** The value was 30 min.

**Q.** And the “blood LH level compared with the control group” value (blood LH levels [1]; 5 nmol administration group)?
**A.** The value was “significant rise”.

**Q.** What about the “blood LH levels compared with the control group” value (blood LH levels [2]; Zucker fatty rats, at 10, 20 and 30 min) of the same substance?
**A.** Its value is “significant rise”.

**Q.** What about the “blood LH levels compared with the control group” value (blood LH levels [2]; Zucker lean rats) of the same substance?
**A.** The value was “no significant rise”.

**Q.** And the “blood LH level compared to the control group” value ([3]; 0.5 nmol and 5 nmol intraventricular, 10 min after injection)?
**A.** Its value is “significant increase”.

**Q.** And the “other pituitary hormone levels in blood (FSH, GH, TSH, ACTH, prolactin)” value ([3]; intraventricular, 5 nmol/rat)?
**A.** Its value is “no other pituitary hormone levels were changed”.

— patent US20040077531A1, “Use of galanin-like peptide” (priority 2001, published 2004)
